How the values were obtained:
[1] = system: p-STAT3; experiment: Western blot of total cell lysate of IL-6/23-stimulated human neutrophils; assay type: cell-based; conditions: IL-6/23 1 h, FIG. 5A
Description: (§1) Neutrophils were isolated from peripheral blood of healthy donors. Peripheral blood was incubated in 3% Dextran, and neutrophils isolated by Ficoll gradient centrifugation (Fisher Scientific), with neutrophil purity determined by staining with Wright-Giemsa.
(§2) Murine or human neutrophils were suspended at a density of 10^6 cells/ml and incubated with […] of recombinant mouse or human IL-6 and 2 μg/ml IL-23 in RPMI, and the cells were maintained for 1-3 h at 37° C. in 5% CO2. Various inhibitors were used for assessing STAT3 activation. For STAT3, neutrophils were treated with either the STAT3-SH2 inhibitor, Stattic (20 μM) obtained from Tocris, or the JAK-1, 2 inhibitor, INC424, (aka Ruxolitinib; 20 μM (Selleck BioChem)). For the determination of RORγt-dependent signaling, SR1001 (20 μM; Sigma) was used, which inhibits RORγt binding to the IL-17 promoter site. All inhibitors were added to neutrophils 2 h prior to recombinant IL-6 and IL-23 stimulation.
Neutrophils collected from primed or naïve C57BL/6 mice or unstimulated murine or human neutrophils were incubated with recombinant IL-6 and IL-23 for 60 min. After this time, cells were washed in PBS and lysed in ice-cold 1× lysis buffer (Cell Signaling Technology, Beverly, Mass.). Total protein was quantified using the BCA method, denatured with 2× Laemmli buffer (Sigma) and heated to 95° C. for 5 minutes. Nuclear extracts of the cells were prepared with the Pierce nuclear extract kit per the manufacturer's directions (Pierce). Ten μg of total protein was analyzed on a 12% SDS polyacrylamide gel, and transferred to nitrocellulose. Blots were probed with the following primary antibodies: Total STAT3 (R&D), p-STAT3 (R&D), RORγt (eBioscience), TATA box binding protein (TBP (Abcam)), and β-actin (Cell Signaling Technology). HRP-conjugated secondary antibodies were used (Santa Cruz Biotechnologies), and western blots developed with Supersignal West Femto Maximum Sensitivity Substrate (Pierce).

[2] = system: IL-17RC; experiment: IL-17RC gene expression by qPCR in IL-6/23-stimulated murine neutrophils; assay type: cell-based; conditions: IL-6/23 1 h, FIG. 6A
Description: Total bone marrow-derived cells were isolated from mouse femurs and tibias by flushing with RPMI and an 18-gauge needle. Erythrocytes were lysed with 1× lysis buffer (eBioscience), and bone marrow cells were separated on a Percoll (Fisher) gradient by density centrifugation (52%, 69%, and 78%). Cells at the 69-78% interface were harvested, and neutrophil purity (>98%) confirmed by flow cytometry and Wright-Giemsa staining.
as §2
(§3) Neutrophil and corneal cell RNA was extracted using the RNeasy mini kit according to the manufacturer's directions (Qiagen, Valencia, Calif.). The quality of RNA was checked by spectrophotometry, and only samples with a 260/280 ratio of 2.0 were used to generate cDNA. The SuperScript First Strand synthesis system (Invitrogen) was used to generate cDNA according to the manufacturer's directions.
(§4) The SYBR green system (Applied Biosystems, Carlsbad, Calif.) was utilized for quantitative PCR (qPCR) using ABI Biosystems. PCR products were then run on a 1% agarose gel, and visualized using ethidium bromide. PCR products were compared to Actb (encoding the β-actin gene) or GAPDH as the controls for gel loading.

[3] = system: IL-17RC; experiment: IL-17RC gene expression by qPCR in IL-6/23-stimulated human neutrophils; assay type: cell-based; conditions: IL-6/23 1 h, FIG. 6B
Description: as §1, §2, §3, §4

[4] = system: bone marrow-derived murine neutrophils; experiment: ROS production (CFDA) by murine bone marrow neutrophils incubated with Aspergillus hyphae; assay type: cell-based, C57BL/6 mice; conditions: IL-6/23-stimulated, inhibitor 20 μM, FIG. 6C
Description: (§5) Murine and human neutrophils were incubated with p-STAT3 (20 μM Stattic or 20 μM INC424) or RORγt inhibitors (20 μM SR1001) for 2 h. Then the cells were stimulated with […] of rIL-6 and 2 μg/ml of rIL-23 for 3 h, washed, and 2×10^5 bone marrow-derived murine neutrophils or 10^5 human peripheral blood neutrophils, with or without recombinant IL-17A, were added to each well with growing hyphae. RPMI media was used as positive control (unimpaired growth), and PBS was used as a negative control (no growth (data not shown)). After 16 h the wells were washed with PBS and the dsRed fungal mass was quantified in a 96-well fluorometer at 550/600 nm excitation/emission filter (Synergy HT, Biotek).
In vitro ROS production measured by CFDA was previously described. Briefly, 100 μg/100 μl of A. fumigatus hyphal extract (AspHE) were incubated with 2×10^5 murine or human neutrophils. Neutrophils were treated for 1 h with 1 μM Carboxyfluorescein diacetate (H2CFDA (Sigma)), which will fluoresce following ROS oxidation. Neutrophils were collected and analyzed by flow cytometry. H2CFDA pulsed neutrophils that had not been incubated with AspHE were used to set the ROS histogram gate. The average mean intensity was calculated by Accuri flow software and graphed in Prism.

[5] = system: A. fumigatus hyphae; experiment: In vitro fungal killing assay (hyphal coincubation) with murine neutrophils; assay type: cell-based, Aspergillus fumigatus; conditions: IL-6/23-stimulated, inhibitor 20 μM, FIG. 6D
Description: Aspergillus strains—For cornea infections and in vitro fungal killing assays, an RFP expressing strain of A. fumigatus (Af-dsRed) was used. This strain is gpdA promoter driven to constitutively express monomeric dsRed. For subcutaneous “priming” injections, heat-killed, swollen conidia Aspergillus fumigatus strain Af-BP was used. For the Aspergillus hyphal extract used in ROS assay, A. fumigatus strain Af-BP hyphae were pulverized in liquid nitrogen, filtered through a 30 μm pre-separation filter (Miltenyi Biotec) and protein measured by the BCA method (Pierce). Aspergillus hyphal extracts (AspHE) were stored at −20° C. and used at a final concentration of 1 mg/ml.
A hyphal coincubation assay was used to study the ability of murine and human neutrophils to inhibit A. fumigatus hyphal growth as described. Briefly, 12,500 A. fumigatus dsRed expressing conidia (strain Af-dsRed) per 200 μl Sabouraud dextrose media were added to wells of black-walled 96 well plates with an optically clear bottom (CoStar 3720). After 6 h, the conidia had germinated and the hyphae became adherent to the wells, at which time the medium was removed.
as §5

## O=[N+]([O-])c1ccc2c(c1)S(=O)(=O)C=C2 [Stattic]
[1]
  RORγt expression (western blot): not altered
  total STAT3 expression (western blot): not altered
[1]; inhibitor 20 μM
  p-STAT3 (western blot): inhibited
[2]
  IL-17RC expression: did not inhibit
[3]
  IL-17RC expression: did not inhibit
[4]; plus rIL-17A
  ROS production: ROS production was increased
[4]; without rIL-17A
  ROS production: not increased above the level produced by naïve neutrophils
[5]; plus rIL-17A
  hyphal killing activity: enhanced hyphal killing activity was detected
[5]; without rIL-17A
  hyphal growth (fluorescent fungal mass): did not further impede hyphal growth

Reference: patent publication US9814720B2, “Compositions and methods of inhibiting IL-17 expression of neutrophils” (priority 2014, dated 2017)
